{"source": "patent US6355799B1", "about": "“Substituted benzene compounds, process for their preparation, and herbicidal and defoliant compositions containing them” (ISK Americas Incorporated, priority 1997, dated 2002)", "type_in_all_cases": "in vivo", "key": {"[1]": {"system": "upland rice (Oryza sp., var. Tebonnet, RICE)", "assay": "Post-emerge test, crop safety", "conditions": "phytotoxicity rating 0-100 (0 no damage, 100 complete death), 14 days after application", "how_it_was_run": "(§1)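 Herbicidal damage is scored 0 (none) to 100 (complete plant death) two weeks after a simulated field spray. Rates span 15–1000 g ai/ha, delivered in acetone at 187 l/ha. For post-emergence treatments, plants have 2–3 leaves and the spray carries 0.25% v/v non-ionic surfactant.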"}, "[2]": {"system": "field corn (Zea mays L., var. Dekalb 535, CORN)", "assay": "Post-emerge test, crop safety", "conditions": "phytotoxicity rating 0-100 (0 no damage, 100 complete death), 14 days after application", "how_it_was_run": "as §1"}, "[3]": {"system": "lambsquarters (Chenopodium album, CHEAL)", "assay": "Post-emerge test, greenhouse herbicide activity screening", "conditions": "phytotoxicity rating 0-100 (0 no damage, 100 complete death), 14 days after application", "how_it_was_run": "(§2)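 Sandy loam pots; pre-emerge: sown 1 d pre-spray, surface-watered after, then bottom-watered. Post-emerge: sown 8–21 d before, 2–3 leaf stage, + 0.25% v/v NIS, bottom-watered. Acetone, 187 l/ha track spray, 15–1000 g ai/ha. 0–100 injury score, day 14.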"}, "[4]": {"system": "green foxtail (Setaria viridis, SETVI)", "assay": "Post-emerge test, greenhouse herbicide activity screening", "conditions": "phytotoxicity rating 0-100 (0 no damage, 100 complete death), 14 days after application", "how_it_was_run": "as §2"}, "[5]": {"system": "redroot pigweed (Amaranthus retroflexus, AMARE)", "assay": "Post-emerge test, greenhouse herbicide activity screening", "conditions": "phytotoxicity rating 0-100 (0 no damage, 100 complete death), 14 days after application", "how_it_was_run": "as §2"}, "[6]": {"system": "common ragweed (Ambrosia artemisizfolia L., AMBEL)", "assay": "Post-emerge test, greenhouse herbicide activity screening", "conditions": "phytotoxicity rating 0-100 (0 no damage, 100 complete death), 14 days after application", "how_it_was_run": "as §2"}, "[7]": {"system": "barnyardgrass (Echinochloa crus-galli, ECHCG)", "assay": "Post-emerge test, greenhouse herbicide activity screening", "conditions": "phytotoxicity rating 0-100 (0 no damage, 100 complete death), 14 days after application", "how_it_was_run": "as §2"}, "[8]": {"system": "large crabgrass (Digitaria sanguinalis, DIGSA)", "assay": "Post-emerge test, greenhouse herbicide activity screening", "conditions": "phytotoxicity rating 0-100 (0 no damage, 100 complete death), 14 days after application", "how_it_was_run": "as §2"}, "[9]": {"system": "velvetleaf (Abutilon theophrasti, ABUTH)", "assay": "Post-emerge test, greenhouse herbicide activity screening", "conditions": "phytotoxicity rating 0-100 (0 no damage, 100 complete death), 14 days after application", "how_it_was_run": "as §2"}, "[10]": {"system": "ivyleaf morningglory (Ipomoea hederacea, IPOHE)", "assay": "Post-emerge test, greenhouse herbicide activity screening", "conditions": "phytotoxicity rating 0-100 (0 no damage, 100 complete death), 14 days after application", "how_it_was_run": "as §2"}, "[11]": {"system": "johnsongrass (Sorghum halepense, SORHA)", "assay": "Post-emerge test, greenhouse herbicide activity screening", "conditions": "phytotoxicity rating 0-100 (0 no damage, 100 complete death), 14 days after application", "how_it_was_run": "as §2"}, "[12]": {"system": "sicklepod (Cassia obtusifolia, CASOB)", "assay": "Post-emerge test, greenhouse herbicide activity screening", "conditions": "phytotoxicity rating 0-100 (0 no damage, 100 complete death), 14 days after application", "how_it_was_run": "as §2"}, "[13]": {"system": "lambsquarters (Chenopodium album, CHEAL)", "assay": "Pre-emerge test, greenhouse herbicide activity screening", "conditions": "pre-emerge, rated 14 days after application, 0 = no damage, 100 = complete death", "how_it_was_run": "as §1"}, "[14]": {"system": "green foxtail (Setaria viridis, SETVI)", "assay": "Pre-emerge test, greenhouse herbicide activity screening", "conditions": "pre-emerge, rated 14 days after application, 0 = no damage, 100 = complete death", "how_it_was_run": "as §1"}, "[15]": {"system": "common ragweed (Ambrosia artemisizfolia L., AMBEL)", "assay": "Pre-emerge test, greenhouse herbicide activity screening", "conditions": "pre-emerge, rated 14 days after application, 0 = no damage, 100 = complete death", "how_it_was_run": "as §1"}, "[16]": {"system": "barnyardgrass (Echinochloa crus-galli, ECHCG)", "assay": "Pre-emerge test, greenhouse herbicide activity screening", "conditions": "pre-emerge, rated 14 days after application, 0 = no damage, 100 = complete death", "how_it_was_run": "as §1"}, "[17]": {"system": "large crabgrass (Digitaria sanguinalis, DIGSA)", "assay": "Pre-emerge test, greenhouse herbicide activity screening", "conditions": "pre-emerge, rated 14 days after application, 0 = no damage, 100 = complete death", "how_it_was_run": "as §1"}, "[18]": {"system": "velvetleaf (Abutilon theophrasti, ABUTH)", "assay": "Pre-emerge test, greenhouse herbicide activity screening", "conditions": "pre-emerge, rated 14 days after application, 0 = no damage, 100 = complete death", "how_it_was_run": "as §1"}, "[19]": {"system": "ivyleaf morningglory (Ipomoea hederacea, IPOHE)", "assay": "Pre-emerge test, greenhouse herbicide activity screening", "conditions": "pre-emerge, rated 14 days after application, 0 = no damage, 100 = complete death", "how_it_was_run": "as §1"}, "[20]": {"system": "johnsongrass (Sorghum halepense, SORHA)", "assay": "Pre-emerge test, greenhouse herbicide activity screening", "conditions": "pre-emerge, rated 14 days after application, 0 = no damage, 100 = complete death", "how_it_was_run": "as §1"}, "[21]": {"system": "sicklepod (Cassia obtusifolia, CASOB)", "assay": "Pre-emerge test, greenhouse herbicide activity screening", "conditions": "pre-emerge, rated 14 days after application, 0 = no damage, 100 = complete death", "how_it_was_run": "as §1"}, "[22]": {"system": "upland rice (Oryza sp., var. Tebonnet, RICE)", "assay": "Pre-emerge test, crop safety", "conditions": "pre-emerge, rated 14 days after application, 0 = no damage, 100 = complete death", "how_it_was_run": "(§3)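 Compounds in acetone were track-sprayed at 15-1000 g ai/ha (187 l/ha) on sandy loam pots: pre-emerge one day after seeding, post-emerge at 2-3 leaf stage with 0.25% v/v non-ionic surfactant. Phytotoxicity was rated 14 days later on a 0 (no damage) to 100 (complete death) scale.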"}, "[23]": {"system": "field corn (Zea mays L., var. Dekalb 535, CORN)", "assay": "Pre-emerge test, crop safety", "conditions": "pre-emerge, rated 14 days after application, 0 = no damage, 100 = complete death", "how_it_was_run": "as §3"}, "[24]": {"system": "redroot pigweed (Amaranthus retroflexus, AMARE)", "assay": "Pre-emerge test, greenhouse herbicide activity screening", "conditions": "pre-emerge, rated 14 days after application, 0 = no damage, 100 = complete death", "how_it_was_run": "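Compounds in acetone were track-sprayed at 187 l/ha, 15–1000 g ai/ha, onto sandy loam pots. Pre-emerge seeds were sown one day before spraying, with surface watering afterwards. Post-emerge plants were at the 2–3 leaf stage and sprayed with 0.25% v/v non-ionic surfactant. Injury was rated 0–100 at 14 days.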"}}, "data": [{"smiles": "COc1c(Cl)cc(F)c(-n2c(=O)cc(C(F)(F)F)n(C)c2=O)c1NC(=O)C(F)(F)F", "note": "[2-10]", "values": [{"measurement": "Post-emerge Herbicidal Activity RICE (crop damage)", "setting": "[1]; 63 g ai/ha", "result": 0}, {"measurement": "Post-emerge Herbicidal Activity RICE (crop damage)", "setting": "[1]; 250 g ai/ha", "result": 5}, {"measurement": "Post-emerge Herbicidal Activity CORN (crop damage)", "setting": "[2]; 63 g ai/ha", "result": 5}, {"measurement": "Post-emerge Herbicidal Activity CORN (crop damage)", "setting": "[2]; 250 g ai/ha", "result": 0}, {"measurement": "Post-emerge Herbicidal Activity CHEAL", "setting": "[3]; 63 g ai/ha", "result": 50}, {"measurement": "Post-emerge Herbicidal Activity CHEAL", "setting": "[3]; 250 g ai/ha", "result": 90}, {"measurement": "Post-emerge Herbicidal Activity SETVI", "setting": "[4]; 63 g ai/ha", "result": 0}, {"measurement": "Post-emerge Herbicidal Activity SETVI", "setting": "[4]; 250 g ai/ha", "result": 70}, {"measurement": "Post-emerge Herbicidal Activity AMARE", "setting": "[5]; 63 g ai/ha", "result": 0}, {"measurement": "Post-emerge Herbicidal Activity AMARE", "setting": "[5]; 250 g ai/ha", "result": 30}, {"measurement": "Post-emerge Herbicidal Activity AMBEL", "setting": "[6]; 63 g ai/ha", "result": 0}, {"measurement": "Post-emerge Herbicidal Activity AMBEL", "setting": "[6]; 250 g ai/ha", "result": 50}, {"measurement": "Post-emerge Herbicidal Activity ECHCG", "setting": "[7]; 63 g ai/ha", "result": 0}, {"measurement": "Post-emerge Herbicidal Activity ECHCG", "setting": "[7]; 250 g ai/ha", "result": 60}, {"measurement": "Post-emerge Herbicidal Activity DIGSA", "setting": "[8]; 63 g ai/ha", "result": 0}, {"measurement": "Post-emerge Herbicidal Activity DIGSA", "setting": "[8]; 250 g ai/ha", "result": 40}, {"measurement": "Post-emerge Herbicidal Activity ABUTH", "setting": "[9]; 63 g ai/ha", "result": 95}, {"measurement": "Post-emerge Herbicidal Activity ABUTH", "setting": "[9]; 250 g ai/ha", "result": 100}, {"measurement": "Post-emerge Herbicidal Activity IPOHE", "setting": "[10]; 63 g ai/ha", "result": 60}, {"measurement": "Post-emerge Herbicidal Activity IPOHE", "setting": "[10]; 250 g ai/ha", "result": 100}, {"measurement": "Post-emerge Herbicidal Activity SORHA", "setting": "[11]; 63 g ai/ha", "result": 0}, {"measurement": "Post-emerge Herbicidal Activity SORHA", "setting": "[11]; 250 g ai/ha", "result": 20}, {"measurement": "Post-emerge Herbicidal Activity CASOB", "setting": "[12]; 63 g ai/ha", "result": 0}, {"measurement": "Post-emerge Herbicidal Activity CASOB", "setting": "[12]; 250 g ai/ha", "result": 10}, {"measurement": "Pre-emerge Herbicidal Activity CHEAL (phytotoxicity rating, scale 0-100)", "setting": "[13]; 63 g ai/ha", "result": 100}, {"measurement": "Pre-emerge Herbicidal Activity CHEAL (phytotoxicity rating, scale 0-100)", "setting": "[13]; 250 g ai/ha", "result": 100}, {"measurement": "Pre-emerge Herbicidal Activity SETVI (phytotoxicity rating, scale 0-100)", "setting": "[14]; 63 g ai/ha", "result": 40}, {"measurement": "Pre-emerge Herbicidal Activity SETVI (phytotoxicity rating, scale 0-100)", "setting": "[14]; 250 g ai/ha", "result": 100}, {"measurement": "Pre-emerge Herbicidal Activity AMBEL (phytotoxicity rating, scale 0-100)", "setting": "[15]; 63 g ai/ha", "result": 100}, {"measurement": "Pre-emerge Herbicidal Activity AMBEL (phytotoxicity rating, scale 0-100)", "setting": "[15]; 250 g ai/ha", "result": 100}, {"measurement": "Pre-emerge Herbicidal Activity ECHCG (phytotoxicity rating, scale 0-100)", "setting": "[16]; 63 g ai/ha", "result": 0}, {"measurement": "Pre-emerge Herbicidal Activity ECHCG (phytotoxicity rating, scale 0-100)", "setting": "[16]; 250 g ai/ha", "result": 95}, {"measurement": "Pre-emerge Herbicidal Activity DIGSA (phytotoxicity rating, scale 0-100)", "setting": "[17]; 63 g ai/ha", "result": 90}, {"measurement": "Pre-emerge Herbicidal Activity DIGSA (phytotoxicity rating, scale 0-100)", "setting": "[17]; 250 g ai/ha", "result": 95}, {"measurement": "Pre-emerge Herbicidal Activity ABUTH (phytotoxicity rating, scale 0-100)", "setting": "[18]; 63 g ai/ha", "result": 100}, {"measurement": "Pre-emerge Herbicidal Activity ABUTH (phytotoxicity rating, scale 0-100)", "setting": "[18]; 250 g ai/ha", "result": 100}, {"measurement": "Pre-emerge Herbicidal Activity IPOHE (phytotoxicity rating, scale 0-100)", "setting": "[19]; 63 g ai/ha", "result": 60}, {"measurement": "Pre-emerge Herbicidal Activity IPOHE (phytotoxicity rating, scale 0-100)", "setting": "[19]; 250 g ai/ha", "result": 100}, {"measurement": "Pre-emerge Herbicidal Activity SORHA (phytotoxicity rating, scale 0-100)", "setting": "[20]; 63 g ai/ha", "result": 0}, {"measurement": "Pre-emerge Herbicidal Activity SORHA (phytotoxicity rating, scale 0-100)", "setting": "[20]; 250 g ai/ha", "result": 80}, {"measurement": "Pre-emerge Herbicidal Activity CASOB (phytotoxicity rating, scale 0-100)", "setting": "[21]; 63 g ai/ha", "result": 50}, {"measurement": "Pre-emerge Herbicidal Activity CASOB (phytotoxicity rating, scale 0-100)", "setting": "[21]; 250 g ai/ha", "result": 90}, {"measurement": "Pre-emerge crop damage RICE (phytotoxicity rating, scale 0-100)", "setting": "[22]; 63 g ai/ha", "result": 0}, {"measurement": "Pre-emerge crop damage RICE (phytotoxicity rating, scale 0-100)", "setting": "[22]; 250 g ai/ha", "result": 30}, {"measurement": "Pre-emerge crop damage CORN (phytotoxicity rating, scale 0-100)", "setting": "[23]; 63 g ai/ha", "result": 0}, {"measurement": "Pre-emerge crop damage CORN (phytotoxicity rating, scale 0-100)", "setting": "[23]; 250 g ai/ha", "result": 40}, {"measurement": "Pre-emerge Herbicidal Activity AMARE (phytotoxicity rating, scale 0-100)", "setting": "[24]; 63 g ai/ha", "result": 50}, {"measurement": "Pre-emerge Herbicidal Activity AMARE (phytotoxicity rating, scale 0-100)", "setting": "[24]; 250 g ai/ha", "result": 100}]}]}
